Measurements published in the supplement of paper PMC13207355.

Experiments:
Conditions in all cases: exposure time: 72 h
[1] = system: E13 (patient-derived glioblastoma stem cells of classical subtype); assay: surviving fraction (nuclei count normalised to DMSO); higher = more cells surviving (less toxic)
[2] = system: E21 (patient-derived glioblastoma stem cells of mesenchymal subtype); assay: as above
[3] = system: E28 (patient-derived glioblastoma stem cells of classical subtype); assay: as above
[4] = system: E31 (patient-derived glioblastoma stem cells of proneural subtype); assay: as above
[5] = system: E34 (patient-derived glioblastoma stem cells of proneural subtype); assay: as above
[6] = system: E57 (patient-derived glioblastoma stem cells of mesenchymal subtype); assay: as above
[7] = system: FT3469 (normal neural stem cell line); assay: as above
[8] = system: E13; assay: phenotypic distance (Euclidean, principal components) from DMSO controls (arbitrary units); higher = stronger morphological change
[9] = system: E21; assay: as above
[10] = system: E28; assay: as above
[11] = system: E31; assay: as above
[12] = system: E34; assay: as above
[13] = system: E57; assay: as above
[14] = system: FT3469; assay: as above
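Throughout, for phenotypic distance (Euclidean, principal components) from DMSO controls: cell Painting imaging in 384-well plates, CellProfiler features reduced to at least 20 principal components, Euclidean distance versus same-plate DMSO vehicle wells (0.1% v/v), median over six images per well.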
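Throughout, for surviving fraction (nuclei count normalised to DMSO): nuclei counted by high-content imaging of Hoechst-stained cells in laminin-coated 384-well plates, relative to 0.1% DMSO vehicle wells, with staurosporine as cell-death control.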

NCCNc1ccc(NCCN)c2c1C(=O)c1ccncc1C2=O [Pixantrone dimaleate]
Conditions | phenotypic distance | surviving fraction
[1], 4.1 nM | – | 0.883
[1], 12.3 nM | – | 0.94
[1], 37 nM | – | 0.916
[1], 111.1 nM | – | 0.798
[1], 333.3 nM | – | 0.48
[1], 1000 nM | – | 0.399
[1], 3000 nM | – | 0.383
[2], 4.1 nM | – | 0.991
[2], 12.3 nM | – | 0.812
[2], 37 nM | – | 0.904
[2], 111.1 nM | – | 0.733
[2], 333.3 nM | – | 0.619
[2], 1000 nM | – | 0.509
[2], 3000 nM | – | 0.364
[3], 4.1 nM | – | 0.677
[3], 12.3 nM | – | 0.604
[3], 37 nM | – | 0.524
[3], 111.1 nM | – | 0.418
[3], 333.3 nM | – | 0.349
[3], 1000 nM | – | 0.333
[3], 3000 nM | – | 0.216
[4], 4.1 nM | – | 0.539
[4], 12.3 nM | – | 0.566
[4], 37 nM | – | 0.397
[4], 111.1 nM | – | 0.327
[4], 333.3 nM | – | 0.312
[4], 1000 nM | – | 0.275
[4], 3000 nM | – | 0.142
[5], 4.1 nM | – | 0.839
[5], 12.3 nM | – | 0.771
[5], 37 nM | – | 0.637
[5], 111.1 nM | – | 0.702
[5], 333.3 nM | – | 0.686
[5], 1000 nM | – | 0.588
[5], 3000 nM | – | 0.492
[6], 4.1 nM | – | 0.955
[6], 12.3 nM | – | 0.897
[6], 37 nM | – | 0.79
[6], 111.1 nM | – | 0.555
[6], 333.3 nM | – | 0.346
[6], 1000 nM | – | 0.288
[6], 3000 nM | – | 0.24
[7], 4.1 nM | – | 0.869
[7], 12.3 nM | – | 0.795
[7], 37 nM | – | 0.763
[7], 111.1 nM | – | 0.623
[7], 333.3 nM | – | 0.666
[7], 1000 nM | – | 0.631
[7], 3000 nM | – | 0.565
[8], 4.1 nM | 2.19 | –
[8], 12.3 nM | 0.616 | –
[8], 37 nM | 0.772 | –
[8], 111.1 nM | 1.76 | –
[8], 333.3 nM | 4.4 | –
[8], 1000 nM | 5.24 | –
[8], 3000 nM | 4.99 | –
[9], 4.1 nM | 0.691 | –
[9], 12.3 nM | 0.873 | –
[9], 37 nM | 0.996 | –
[9], 111.1 nM | 2.7 | –
[9], 333.3 nM | 4.95 | –
[9], 1000 nM | 6 | –
[9], 3000 nM | 5.53 | –
[10], 4.1 nM | 2.06 | –
[10], 12.3 nM | 2.09 | –
[10], 37 nM | 2.43 | –
[10], 111.1 nM | 3.32 | –
[10], 333.3 nM | 3.6 | –
[10], 1000 nM | 3.19 | –
[10], 3000 nM | 4.63 | –
[11], 4.1 nM | 2.15 | –
[11], 12.3 nM | 1.85 | –
[11], 37 nM | 2.43 | –
[11], 111.1 nM | 3.58 | –
[11], 333.3 nM | 2.86 | –
[11], 1000 nM | 3.07 | –
[11], 3000 nM | 4.34 | –
[12], 4.1 nM | 0.885 | –
[12], 12.3 nM | 0.947 | –
[12], 37 nM | 1.52 | –
[12], 111.1 nM | 3.49 | –
[12], 333.3 nM | 3.78 | –
[12], 1000 nM | 3.22 | –
[12], 3000 nM | 1.77 | –
[13], 4.1 nM | 0.987 | –
[13], 12.3 nM | 0.95 | –
[13], 37 nM | 1.45 | –
[13], 111.1 nM | 3.37 | –
[13], 333.3 nM | 6.17 | –
[13], 1000 nM | 7.83 | –
[13], 3000 nM | 8.45 | –
[14], 4.1 nM | 1.02 | –
[14], 12.3 nM | 1.28 | –
[14], 37 nM | 1.5 | –
[14], 111.1 nM | 2.03 | –
[14], 333.3 nM | 1.76 | –
[14], 1000 nM | 1.86 | –
[14], 3000 nM | 2.37 | –
